Source: publication PMC3274751 (ACS medicinal chemistry letters, 2011)

What was measured:
MeV-Alaska = assay: Viral CPE inhibition; conditions: compared with BM-1
Vero cells = assay: Cytotoxicity in Vero cells
actively dividing cells = conditions: cited from earlier work

SMILES: COc1ccc(-n2c(SC(C)C(=O)Nc3cc(C)nn3C)nc3ccccc32)cc1 (centres unmarked) [Compound 6j]
- fold reduction of potency relative to BM-1 (MeV-Alaska): 2 fold

SMILES: COc1ccc(-n2c(SC(C)C(=O)Nc3nc(C)cs3)nc3ccccc32)cc1 (centres unmarked) [Compound 6m]
- fold reduction of potency relative to BM-1 (MeV-Alaska): 10 fold

SMILES: COc1ccc(-n2c(SC(C)C(=O)Nc3cc(C)no3)nc3ccccc32)cc1 (centres unmarked) [Compound 6n]
- fold reduction of potency relative to BM-1 (MeV-Alaska): 2 fold

SMILES: COc1ccc(-n2c(SC(C)C(=O)Nc3ccc(C)cc3Cl)nc3ccccc32)cc1 (centres unmarked) [Compound 6p]
- acute cytotoxicity (Vero cells): does not display any detectable acute cytotoxicity
- effect on cell proliferation (actively dividing cells): cytostatic effect
